For this data set the following is noted: 101.33 kPa, Liquid, Vibrating tube method.

Numbers after ± are expanded uncertainties.

By mass density is commonly meant the mass of a sample divided by its volume. Consider `CCCCCCCC` [octane], for which the mass density is recorded as 702.64 ± 0.32 kg/m3 (293.15 K) and 686.39 ± 0.32 kg/m3 (313.15 K).
On the same counts, the results for `CCCCOCCO` [2-butoxyethan-1-ol] are 900.64 ± 0.15 kg/m3 and 883.8 ± 0.15 kg/m3.

The record behind these values is the NIST ThermoML archive (doi:10.1016/j.fluid.2015.04.019).
